Data reported in PMC6979384, “Characterization of the plant homeodomain (PHD) reader family for their histone tail interactions” (Epigenetics & Chromatin, 2020).

How the values were obtained:
Test in all cases: Histone peptide microarray
Assay type in all cases: binding, human
[1] = test system: AIRE (PP); details: total n = 4; for Array Heatmap signal (histone peptide microarray): GST-tagged AIRE (PP), sheet Array Heatmap, each array performed twice
Summary of the method: (§1)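 GST-tagged PHD finger readers were expressed, purified and applied at 0.5 μM to a microarray of 293 synthetic histone peptides carrying single or combinatorial PTMs, using an optimized protocol. Binding signals are averages with standard deviation from 4 replicates.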

[2] = test system: BAZ2B; details: total n = 4; for Array Heatmap signal (histone peptide microarray): GST-tagged BAZ2B, sheet Array Heatmap, each array performed twice
Summary of the method: as §1

[3] = test system: BPTF (PB); details: total n = 4; for Array Heatmap signal (histone peptide microarray): GST-tagged BPTF (PB = PHD + Bromodomain), sheet Array Heatmap, each array performed twice
Summary of the method: as §1

[4] = test system: CHD4 (PPCC); details: total n = 4; for Array Heatmap signal (histone peptide microarray): GST-tagged CHD4 (PPCC = Dual PHD + Dual Chromodomain), sheet Array Heatmap, each array performed twice
Summary of the method: as §1

[5] = test system: CHD5 (PCC); details: total n = 4; for Array Heatmap signal (histone peptide microarray): GST-tagged CHD5 (PCC = PHD + Dual Chromodomain), sheet Array Heatmap, each array performed twice
Summary of the method: as §1

[6] = test system: CHD5 (PPCC); details: total n = 4; for Array Heatmap signal (histone peptide microarray): GST-tagged CHD5 (PPCC = Dual PHD + Dual Chromodomain), sheet Array Heatmap, each array performed twice
Summary of the method: as §1

[7] = test system: DIDO1; details: total n = 4; for Array Heatmap signal (histone peptide microarray): GST-tagged DIDO1, sheet Array Heatmap, each array performed twice
Summary of the method: as §1

[8] = test system: DPF2 (PPC2W2); details: total n = 4; for Array Heatmap signal (histone peptide microarray): GST-tagged DPF2 (PPC2W2 = Dual PHD + C2W2-type Zn-finger), sheet Array Heatmap, each array performed twice
Summary of the method: as §1

[9] = test system: ING1; details: total n = 4; for Array Heatmap signal (histone peptide microarray): GST-tagged ING1, sheet Array Heatmap, each array performed twice
Summary of the method: as §1

[10] = test system: ING2; details: total n = 4; for Array Heatmap signal (histone peptide microarray): GST-tagged ING2, sheet Array Heatmap, each array performed twice
Summary of the method: as §1

[11] = test system: ING3; details: total n = 4; for Array Heatmap signal (histone peptide microarray): GST-tagged ING3, sheet Array Heatmap, each array performed twice
Summary of the method: as §1

[12] = test system: ING4; details: total n = 4; for Array Heatmap signal (histone peptide microarray): GST-tagged ING4, sheet Array Heatmap, each array performed twice
Summary of the method: as §1

[13] = test system: ING5; details: total n = 4; for Array Heatmap signal (histone peptide microarray): GST-tagged ING5, sheet Array Heatmap, each array performed twice
Summary of the method: as §1

[14] = test system: KDM4C (TTP); details: total n = 4; for Array Heatmap signal (histone peptide microarray): GST-tagged KDM4C (TTP = Tandem Tudor domain + PHD), sheet Array Heatmap, each array performed twice
Summary of the method: as §1

[15] = test system: KDM5A (1); details: total n = 4; for Array Heatmap signal (histone peptide microarray): GST-tagged KDM5A (1), sheet Array Heatmap, each array performed twice
Summary of the method: as §1

[16] = test system: KDM5A (3); details: total n = 4; for Array Heatmap signal (histone peptide microarray): GST-tagged KDM5A (3), sheet Array Heatmap, each array performed twice
Summary of the method: as §1

[17] = test system: KDM5B (1); details: total n = 4; for Array Heatmap signal (histone peptide microarray): GST-tagged KDM5B (1), sheet Array Heatmap, each array performed twice
Summary of the method: as §1

[18] = test system: KDM5B (3); details: total n = 4; for Array Heatmap signal (histone peptide microarray): GST-tagged KDM5B (3), sheet Array Heatmap, each array performed twice
Summary of the method: as §1

[19] = test system: KDM7A; details: total n = 4; for Array Heatmap signal (histone peptide microarray): GST-tagged KDM7A, sheet Array Heatmap, each array performed twice
Summary of the method: as §1

[20] = test system: MLL5; details: total n = 4; for Array Heatmap signal (histone peptide microarray): GST-tagged MLL5, sheet Array Heatmap, each array performed twice
Summary of the method: as §1

[21] = test system: MORC3 (CW); details: total n = 4; for Array Heatmap signal (histone peptide microarray): GST-tagged MORC3 (CW = CW-type Zn-finger), sheet Array Heatmap, each array performed twice
Summary of the method: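 Steps: express and purify GST-tagged PHD reader; incubate 0.5 μM protein on a peptide microarray (293 histone peptides, single or combined PTMs) following an optimized protocol; average signal across 4 replicates.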

[22] = test system: PHF13; details: total n = 4; for Array Heatmap signal (histone peptide microarray): GST-tagged PHF13, sheet Array Heatmap, each array performed twice
Summary of the method: as §1

[23] = test system: PHF21A; details: total n = 4; for Array Heatmap signal (histone peptide microarray): GST-tagged PHF21A, sheet Array Heatmap, each array performed twice
Summary of the method: as §1

[24] = test system: PHF23; details: total n = 4; for Array Heatmap signal (histone peptide microarray): GST-tagged PHF23, sheet Array Heatmap, each array performed twice
Summary of the method: as §1

[25] = test system: PHF2; details: total n = 4; for Array Heatmap signal (histone peptide microarray): GST-tagged PHF2, sheet Array Heatmap, each array performed twice
Summary of the method: as §1

[26] = test system: PHF8; details: total n = 4; for Array Heatmap signal (histone peptide microarray): GST-tagged PHF8, sheet Array Heatmap, each array performed twice
Summary of the method: as §1

[27] = test system: PHRF1 (RP); details: total n = 4; for Array Heatmap signal (histone peptide microarray): GST-tagged PHRF1 (RP), sheet Array Heatmap, each array performed twice
Summary of the method: as §1

[28] = test system: RAG2; details: total n = 4; for Array Heatmap signal (histone peptide microarray): GST-tagged RAG2, sheet Array Heatmap, each array performed twice
Summary of the method: as §1

[29] = test system: SP140L; details: total n = 4; for Array Heatmap signal (histone peptide microarray): GST-tagged SP140L, sheet Array Heatmap, each array performed twice
Summary of the method: as §1

[30] = test system: TAF3; details: total n = 4; for Array Heatmap signal (histone peptide microarray): GST-tagged TAF3, sheet Array Heatmap, each array performed twice
Summary of the method: as §1

[31] = test system: TRIM66 (PB); details: total n = 4; for Array Heatmap signal (histone peptide microarray): GST-tagged TRIM66 (PB = PHD + Bromodomain), sheet Array Heatmap, each array performed twice
Summary of the method: as §1

[32] = sheet "Array Heatmap", GST-tagged reader, histone peptide array

H3K4me3 + K9ac + K14ac + K18ac: H3 1-20
Array Heatmap signal (histone peptide microarray) [1]: 0.4865
Array Heatmap signal (histone peptide microarray) [2]: 0.6196
Array Heatmap signal (histone peptide microarray) [3]: 0.7619
Array Heatmap signal (histone peptide microarray) [4]: 0.5745
Array Heatmap signal (histone peptide microarray) [5]: 0.8618
Array Heatmap signal (histone peptide microarray) [6]: 0.5931
Array Heatmap signal (histone peptide microarray) [7]: 0.9126
Array Heatmap signal (histone peptide microarray) [8]: 0.7652
Array Heatmap signal (histone peptide microarray) [9]: 0.7787
Array Heatmap signal (histone peptide microarray) [10]: 0.8772
Array Heatmap signal (histone peptide microarray) [11]: 0.8559
Array Heatmap signal (histone peptide microarray) [12]: 0.625
Array Heatmap signal (histone peptide microarray) [13]: 0.4716
Array Heatmap signal (histone peptide microarray) [14]: 0.6463
Array Heatmap signal (histone peptide microarray) [15]: 0.4983
Array Heatmap signal (histone peptide microarray) [16]: 0.9909
Array Heatmap signal (histone peptide microarray) [17]: 0.7481
Array Heatmap signal (histone peptide microarray) [18]: 0.8339
Array Heatmap signal (histone peptide microarray) [19]: 0.5567
Array Heatmap signal (histone peptide microarray) [20]: 0.936
Array Heatmap signal (histone peptide microarray) [21]: 1
Array Heatmap signal (histone peptide microarray) [22]: 0.7829
Array Heatmap signal (histone peptide microarray) [23]: 0.4925
Array Heatmap signal (histone peptide microarray) [24]: 0.8373
Array Heatmap signal (histone peptide microarray) [25]: 0.7873
Array Heatmap signal (histone peptide microarray) [26]: 0.7502
Array Heatmap signal (histone peptide microarray) [27]: 0.5895
Array Heatmap signal (histone peptide microarray) [28]: 0.8746
Array Heatmap signal (histone peptide microarray) [29]: 0.3627
Array Heatmap signal (histone peptide microarray) [30]: 0.6574
Array Heatmap signal (histone peptide microarray) [31]: 0.6004

H3K4me3 + K9ac + K18ac: H3 1-20
Array Heatmap signal (histone peptide microarray) [1]: 0.5297
Array Heatmap signal (histone peptide microarray) [2]: 0.5371
Array Heatmap signal (histone peptide microarray) [3]: 0.7655
Array Heatmap signal (histone peptide microarray) [4]: 0.5646
Array Heatmap signal (histone peptide microarray) [5]: 0.8455
Array Heatmap signal (histone peptide microarray) [6]: 0.6046
Array Heatmap signal (histone peptide microarray) [7]: 0.9071
Array Heatmap signal (histone peptide microarray) [8]: 0.728
Array Heatmap signal (histone peptide microarray) [9]: 0.8615
Array Heatmap signal (histone peptide microarray) [10]: 0.8776
Array Heatmap signal (histone peptide microarray) [11]: 0.8253
Array Heatmap signal (histone peptide microarray) [12]: 0.6909
Array Heatmap signal (histone peptide microarray) [13]: 0.4905
Array Heatmap signal (histone peptide microarray) [14]: 0.7748
Array Heatmap signal (histone peptide microarray) [15]: 0.5009
Array Heatmap signal (histone peptide microarray) [16]: 0.919
Array Heatmap signal (histone peptide microarray) [17]: 0.7108
Array Heatmap signal (histone peptide microarray) [18]: 0.9067
Array Heatmap signal (histone peptide microarray) [19]: 1
Array Heatmap signal (histone peptide microarray) [20]: 0.9085
Array Heatmap signal (histone peptide microarray) [21]: 0.8949
Array Heatmap signal (histone peptide microarray) [22]: 0.8179
Array Heatmap signal (histone peptide microarray) [23]: 0.4825
Array Heatmap signal (histone peptide microarray) [24]: 0.8424
Array Heatmap signal (histone peptide microarray) [25]: 0.7127
Array Heatmap signal (histone peptide microarray) [26]: 1
Array Heatmap signal (histone peptide microarray) [27]: 0.6174
Array Heatmap signal (histone peptide microarray) [28]: 0.8902
Array Heatmap signal (histone peptide microarray) [29]: 0.3543
Array Heatmap signal (histone peptide microarray) [30]: 0.7825
Array Heatmap signal (histone peptide microarray) [31]: 0.7372

H3K4me3 + K9ac + S10p: H3 1-20
Array Heatmap signal, AIRE (PP) [1, 32]: 0.4053
Array Heatmap signal, BAZ2B [2, 32]: 0.4222
Array Heatmap signal, BPTF (PB) [3, 32]: 0.3713
Array Heatmap signal, CHD4 (PPCC) [4, 32]: 0.6064
Array Heatmap signal, CHD5 (PCC) [5, 32]: 0.7803
Array Heatmap signal, CHD5 (PPCC) [6, 32]: 0.5185
Array Heatmap signal, DIDO1 [7, 32]: 0.8464
Array Heatmap signal, DPF2 (PPC2W2) [8, 32]: 0.6858
Array Heatmap signal, ING1 [9, 32]: 0.6226
Array Heatmap signal, ING2 [10, 32]: 0.7056
Array Heatmap signal, ING3 [11, 32]: 0.5024
Array Heatmap signal, ING4 [12, 32]: 0.4594
Array Heatmap signal, ING5 [13, 32]: 0.3414
Array Heatmap signal, KDM4C (TTP) [14, 32]: 0.4439
Array Heatmap signal, KDM5A (1) [15, 32]: 0.422
Array Heatmap signal, KDM5A (3) [16, 32]: 0.592
Array Heatmap signal, KDM5B (1) [17, 32]: 0.5673
Array Heatmap signal, KDM5B (3) [18, 32]: 0.4789
Array Heatmap signal, KDM7A [19, 32]: 0.3478
Array Heatmap signal, MLL5 [20, 32]: 0.6372
Array Heatmap signal, MORC3 (CW) [21, 32]: 0.5046
Array Heatmap signal, PHF13 [22, 32]: 0.601
Array Heatmap signal, PHF21A [23, 32]: 0.4669
Array Heatmap signal, PHF23 [24, 32]: 0.5778
Array Heatmap signal, PHF2 [25, 32]: 0.6992
Array Heatmap signal, PHF8 [26, 32]: 0.4377
Array Heatmap signal, PHRF1 (RP) [27, 32]: 0.5333
Array Heatmap signal, RAG2 [28, 32]: 0.3673
Array Heatmap signal, SP140L [29, 32]: 0.3742
Array Heatmap signal, TAF3 [30, 32]: 0.3627
Array Heatmap signal, TRIM66 (PB) [31, 32]: 0.5913
